Data published in a melting point compilation (Tetko et al.; mined from patent text by program, amines drawn as free bases though some values may be those of a salt).

melting point [°C]	SMILES
123 to 124	C=CCn1c(C)c(C)c2cnnc(CCc3ccc(F)cc3)c21
135 to 137	CN(C)CCCn1c2c(c3cc(Br)ccc31)CCS(=O)(=O)CCC2
183 to 186	CCCOc1ccc(S(=O)(=O)N2CCN(CC)CC2)cc1-c1nc2cc(N)c(N)cc2c(=O)[nH]1
308	O=c1c(-c2cccc(Cl)c2)coc2cc(O)c(O)cc12
290 to 293	O=c1[nH]c(=O)n2c3c(cccc13)S(=O)(=O)c1ccc(C(F)(F)F)cc1-2
224 to 225	CCOC(=O)c1cn2c3c(cc(I)cc3c1=O)OC(c1ccccn1)C2 (centres undefined)
230 to 235	Nc1nc2c(Cl)cc(F)c(-c3ncc(C(F)(F)F)cc3Cl)c2s1
224 to 225	Fc1ccc(-n2ccc3cc(-c4nnn[nH]4)ccc32)cc1
> 350	O=c1[nH]c2cc(Cl)ccc2c(O)c1-c1ccc([N+](=O)[O-])cc1
168 to 169	Cc1c(Cc2cccc(C(F)(F)F)c2)sc2c(-c3cc(F)cc(C(=O)O)c3)cccc12
218	CC(C)Oc1cccc(Nc2cc(-c3c[nH]nc3-c3ccccn3)ccn2)c1
94 to 97	CCC(C)COc1ccc(-c2ccc(OS(=O)(=O)c3ccc(C)cc3)cc2)cc1 (centres undefined)
144 to 146	CC(CCCl)C(=O)Nc1cc(C(C)(C)C)ns1 (centres undefined)
112 to 113	COc1cc(OCc2ccc3c(c2)C(C)(C)CCC3(C)C)ccc1C(=O)OCc1ccccc1
204 to 205	O=C1CCC(=NNc2ccc(I)cc2)c2ncccc2N1
117 to 118	CCn1cc(CO)c(OCc2ccc(OCc3nc(-c4ccco4)oc3C)c(OC)c2)n1
> 250	COc1cc2ncc(C#N)c(Nc3ccc(C(N)=O)cc3)c2cc1OC
267 to 272	CN1CCN(C(=O)Nc2ccc3c(c2)NC(=O)/C3=C\c2ccc[nH]2)C1=O
244 to 245	Cc1nc2c(N)nc3ccc(OCc4ccccc4)cc3c2n1CCCCNC(=O)c1ccccc1
312 to 314	Cc1nc2c([nH]1)C(=O)N1CCN=C1N2Cc1ccc(Cl)cc1
130 to 132	CCc1n[nH]c(CC)c1CCCCCCOc1ccc(Cl)cc1
157 to 158	Cc1cc(-c2cc(CO)c(=O)n(Cc3ccc(Cl)cc3)n2)ccc1F
89 to 93	Oc1cccc2c1CC1C(C2)C1(Cl)Cl (centres undefined)
176 to 178	O=c1[nH]c2ccc(S(=O)CCN3CCC(Cc4ccccc4)CC3)cc2o1 (centres undefined)

melting point [°C]	SMILES
174 to 175	N#CCOc1cc(Cl)c2c(=O)c(-c3ccccc3Cl)coc2c1
159 to 161	OC(Cn1cncn1)(Cn1cnc(C=Cc2ccc(C(F)(F)F)cc2)n1)c1ccc(Cl)cn1 (centres undefined)
> 250	N#Cc1cccc(-c2nc(Nc3cnccn3)sc2-n2cncn2)c1
287 to 289	c1ccc2c(c1)CCn1ccnc1C2=C1CCNCC1
138	Cc1cc(C)n2nc(S(=O)(=O)Cl)c(C#N)c2n1
42.4 to 43.8	Cc1nc(Cl)c2c3c(oc2n1)CCCC3
64.5 to 65	CCCc1ccc(OCCC(C)C)c2c(=O)cc(C(=O)O)oc12
154 to 155	c1ccc(Cn2ncc3c2-c2ccccc2C3(Cc2ccncc2)Cc2ccncc2)cc1
115	CNCCCOc1ccc(S(=O)(=O)c2[nH]c3ccccc3c2C(C)C)cc1
189	Clc1ccc2c(c1)N(c1ncnc3cc(Cl)ccc13)CC2
167 to 168	COc1ccc(C(=O)Nc2ccc(OCCCl)cc2)c(N)c1
81 to 84	FC(F)(F)c1nc(-c2ccc(NCc3ccccc3)cn2)no1
234 to 236	Nc1c(C=O)cc(-n2cnnc2)cc1C(F)(F)F
179 to 181	Nc1nc(Cl)c(Cl)c(NCC2(CO)CCC2)n1
106	FC(F)(F)c1cccc(-c2ncn(CC3CC3)c2-c2ccncc2)c1
168 to 170	CSC(Nc1cccc(C#N)c1)=C(C#N)S(=O)(=O)c1ccc(Cl)cc1
155 to 157	COc1ccc(N2CCOCC2)c2sc(-c3nc4c([nH]3)CCN(C(C)=O)C4)nc12
114 to 115	CCOC(=O)C(C)(C)NC(=O)c1cccc(C2=NC(C)(C)Cc3cc(OC)c4c(c32)CC(C)(C)O4)c1
121 to 122	CC1CCCCC1N(Cc1ccc(C(=O)NC(C)(C)C(=O)O)cc1)S(=O)(=O)c1ccc(Cl)cc1 (centres undefined)
179 to 182	Cc1ccc(NCC2CCN(C3CCCCC3)CC2)c(C(=O)Nc2ccc(Cl)cn2)c1
109	CCC[C@H]1CC[C@H](CCCOc2ccc(C(=O)O[C@H](C)[C@@H](C)OC(=O)c3ccc(OCCC[C@H]4CC[C@H](CCC)CC4)cc3)cc2)CC1
169 to 170	c1ccc(-n2cc3c(n2)-n2cccc2C3(Cc2ccncc2)Cc2ccncc2)cc1
120 to 122	CCOC(=O)c1ncc(-c2ccc(Br)cc2)o1
78 to 80	COc1ccc(N2CCN(CCC(O)COc3ccc(F)cc3)CC2)cc1 (centres undefined)

melting point [°C]	SMILES
147 to 149	O=C(c1ccccn1)c1cc(Br)ccc1-n1cnnc1CCl
206 to 208	COC(=O)c1cc2c(Nc3ncccn3)cccc2s1
83	COC(=O)CC(=O)C=Cc1ccccc1
226 to 229	Cc1cc(C)cc(-c2nc(NC(=O)Cc3ccccc3)sc2-c2ccncc2)c1
246 to 248	CCCOc1cccc2cc(-c3ccc4c(c3)C=C(C(=O)Nc3ccc(CN(C)C5CCOCC5)cc3)CCS4(=O)=O)oc12
128 to 135	COc1cc(C(=O)NS(=O)(=O)c2ccccc2Cl)ccc1Cc1cn(C)c2ccc(CC3CCN(C)C3=O)cc12 (centres undefined)
144 to 145	Fc1ccc(OCc2ccnc3c(Cl)cccc23)cc1
165 to 167	COC(=O)c1ccc2oc(CCc3cc4cc(C(=O)OC)ccc4o3)cc2c1
300	COC(=O)Nc1nc2ccc(O)cc2[nH]1
245 to 247	O=C(O)c1ccc(-c2ccc3nnn(Cc4ccc5ncccc5c4)c3n2)cc1
94 to 96	CC(C)(C)OC(=O)c1cccc(O)c1
102 to 104	Cc1cccn2cc(CN3CCN(c4ccc(Cl)cc4)CC3)nc12
107 to 109	Cc1c(C(=O)C23CC4CC(CC(C4)C2)C3)oc2cc(F)ccc12
53 to 55	CC(=CN(C)C)C(=O)c1cccc(C(F)(F)F)c1
87 to 88	NCC(=O)NCc1cccnc1
163 to 165	O=C(NCC1(c2ccccc2)CCCCC1)Nc1ccc(F)cc1F
123 to 125	CCSc1cc(C)nc(SCC)c1NC(=O)CCCSc1nc2ccccc2o1
164	COC(=O)c1cccc(-c2nc(=O)c3ccccc3s2)c1
49 to 50	CC(=O)/C=C(\C)c1ccc(C2CCCCC2)cc1
79 to 80	c1ccc(CSc2nc[nH]n2)cc1
154 to 157	O=C1C2CC(F)CCN2C(=O)N1c1ncc(Cl)cc1F (centres undefined)
131 to 134	O=C1c2cccc([N+](=O)[O-])c2OC12CC2
263 to 265	CCC(=O)C(O)=NNc1cc([N+](=O)[O-])ccc1Br
160 to 170	CS(=O)CCC(NS(=O)(=O)c1ccc2c(c1)Sc1ccccc1O2)C(=O)O (centres undefined)

melting point [°C]	SMILES
99 to 100	Nc1cc(C(=O)c2ccccc2)ccc1N1CCCCC1
79.5 to 82.5	CCCCCCCCCCOC(=O)CN(CP(=O)(ONC1CCCCC1)ONC1CCCCC1)C(=O)C(F)(F)F
101 to 102	CCOC(=O)C1(C(=O)OCC)CCC2(CC1)c1cc(OC)c(OC)cc1CCN2C(=O)OCc1ccccc1
116 to 119	NCCCc1ccc(CCCN)nc1
215 to 218	CC1CC(=O)NN=C1c1ccc2c(c1)N(C)C(=O)CO2 (centres undefined)
269	CCCc1ccc(-c2[nH]nc3c2C(=O)c2c(NC(C)=O)cccc2-3)cc1
85	COc1ccc2c(c1)C(C(=O)N(Cc1ccc(Br)cc1)c1ccc(C(C)C)cc1)CCC2 (centres undefined)
217 to 218	COc1cc(C(=O)Nc2cc(-c3c(-c4ccc(F)c(C)c4)nc4cccnn34)ccn2)ccc1F
159 to 161	O=C(O)c1cccc(CCc2n[nH]c3c2c(=O)n(-c2ccccc2)c2ncccc32)c1
> 300	O=C(O)c1cn(C2CC2)c2c(F)c(N3Cc4cccc(O)c4C3)c(F)cc2c1=O
74 to 78	CCc1cc(NC(C)=O)cc(CC)n1
244 to 245	Cc1cscc1-c1cccc2c1nnn2-c1ccnc(NC2CCN(S(C)(=O)=O)CC2)n1
190 to 192	N#Cc1cnn(-c2ccc(Cl)c(Cl)c2Cl)c1NC=O
162 to 164	CC(=O)SCC(C)C(=O)N(CC(=O)O)C1CCC1 (centres undefined)
89 to 90	CC[C@H](C)[C@H](OCc1ccccc1)[C@@H]1[C@H]([N+](=O)[O-])[C@H](c2ccccc2)N[C@]1(C)C(=O)NCC(=O)O
120 to 122	CC(C)(C)N[C@@H]1CCc2c(ccc(OCc3ccccc3)c2C#N)[C@H]1O (relative stereo)
116 to 119	CCn1c(C)nc2cc(C(F)(F)F)c(Cl)c(NC)c21
145 to 148	CC1(C)NC(=O)CN1C(=O)CN
206 to 208	Cc1ccc(Cl)c(-c2cc(=O)c3c(O)cc(O)c([C@@H]4CCN(C)[C@H]4CO)c3o2)c1
> 200	Clc1ccc(Cl)c(CN2CCNc3ncc(-c4ccc(N5CCCC5)nc4)cc32)c1
165 to 166	CC1(C)OC(=O)C(Oc2cccc(N)n2)=C1c1ccc(S(C)(=O)=O)cc1
191 to 194	CC1OCC(=O)N(C(=O)O)C1c1ccc(F)c(F)c1 (single isomer, unassigned; (+))

SMILES	melting point [°C]
CCc1c(C(=O)C(N)=O)c2c(OCC(=O)N(C)OCc3ccccc3)cccc2n1Cc1ccccc1	186 to 188
Cc1nnc2n1-c1ccc(Br)cc1C(c1ccccc1F)=NC2NC(=O)OCc1ccccc1 (centres undefined)	160 to 170
O=[N+]([O-])c1cccc([N+](=O)[O-])c1F	50
c1ccc2c(c1)CC(CN1CCC(c3c[nH]c4cc5c(cc34)OCO5)CC1)C2	187 to 188
COCOCc1oc2c(OC)cccc2c1CCSC(c1ccccc1)c1ccccc1	110
